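Cultured in 96-well plates, cells were exposed to test compound for 48 hours across five concentrations. GI50 is the concentration that inhibits growth by half.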 The source made the active and inactive calls. No stated cut-off is given here; in the data, active = GI50 up to about 1.1 µM and inactive = higher.
What was measured:
Test in all cases: DTP human tumour cell line panel, 48 h
CAKI-1 = system: CAKI-1
HCT-116 = system: HCT-116
HL-60 = system: HL-60
K562 = system: K562
MDA-MB-435 = system: MDA-MB-435
MOLT-4 = system: MOLT-4
NCI/ADR-RES = system: NCI/ADR-RES
OVCAR-4 = system: OVCAR-4
PC-3 = system: PC-3
SF-295 = system: SF-295
SK-MEL-2 = system: SK-MEL-2
SNB-19 = system: SNB-19
UACC-62 = system: UACC-62
HCC 2998 = system: HCC 2998
SK-OV-3 = system: SK-OV-3
SNB-75 = system: SNB-75
SF-539 = system: SF-539

Measured: GI50

O=C1NC(=S)NC(=O)C1C(c1ccc(O)cc1)C1C(=O)NC(=S)NC1=O.c1ccncc1
inactive: CAKI-1 > 100 µM | HCT-116 > 100 µM | HL-60 > 100 µM | K562 > 100 µM | MDA-MB-435 > 100 µM | MOLT-4 > 100 µM | NCI/ADR-RES > 100 µM | OVCAR-4 > 100 µM | PC-3 > 100 µM | SF-295 > 100 µM | SK-MEL-2 > 100 µM | SNB-19 > 100 µM | UACC-62 > 100 µM

CN(Cc1ccccc1)C(=S)S [SODIUM BENZYL(METHYL)CARBAMODITHIOATE]
inactive: CAKI-1 37.4 µM | HCC 2998 > 100 µM | HCT-116 19.2 µM | HL-60 26.4 µM | K562 34.1 µM | MDA-MB-435 43.2 µM | MOLT-4 20 µM | NCI/ADR-RES 38.1 µM | OVCAR-4 28.4 µM | SF-295 34 µM | SK-MEL-2 55.7 µM | SK-OV-3 > 100 µM | SNB-75 > 100 µM | UACC-62 40.8 µM

Cc1ccc2ccccc2c1CC1S(=O)(=O)OCCOS1(=O)=O
inactive: CAKI-1 12.1 µM | HCC 2998 4.15 µM | HCT-116 13.1 µM | HL-60 2.12 µM | K562 9.12 µM | MDA-MB-435 8.67 µM | MOLT-4 6.28 µM | NCI/ADR-RES 19.1 µM | OVCAR-4 11.2 µM | PC-3 11.2 µM | SF-295 13.1 µM | SK-MEL-2 16.7 µM | SNB-19 12.7 µM

COC(=O)C(Cc1nc2ccccc2nc1O)C(=O)C(=O)Nc1ccc(OC)cc1[N+](=O)[O-] (stereo not given)
inactive: CAKI-1 > 100 µM | HCC 2998 > 100 µM | HCT-116 > 100 µM | HL-60 > 100 µM | K562 > 100 µM | MOLT-4 > 100 µM | OVCAR-4 > 100 µM | SF-295 > 100 µM | SF-539 > 100 µM | SK-MEL-2 > 100 µM | SK-OV-3 > 100 µM | SNB-19 > 100 µM | UACC-62 > 100 µM

O=C1NC(NNc2ccccc2)=N/C1=C\c1ccco1
inactive: CAKI-1 14.3 µM | HCC 2998 17.6 µM | HCT-116 14.3 µM | HL-60 20.3 µM | MDA-MB-435 12.4 µM | MOLT-4 30.1 µM | NCI/ADR-RES 26.2 µM | OVCAR-4 14.6 µM | PC-3 19.3 µM | SF-295 39.5 µM | SK-MEL-2 12.9 µM | SK-OV-3 > 100 µM | SNB-19 43.5 µM | SNB-75 24.7 µM | UACC-62 4.29 µM

Cc1nnc(N)nc1C/C=C/C(C)Sc1ccc(Cl)cc1 (stereo not given)
inactive: CAKI-1 7.94 µM | HCC 2998 14.4 µM | HCT-116 5.74 µM | HL-60 3.89 µM | K562 9.73 µM | MDA-MB-435 7.73 µM | MOLT-4 3.7 µM | NCI/ADR-RES 9.79 µM | OVCAR-4 10.1 µM | PC-3 4.35 µM | SF-295 2.77 µM | SK-MEL-2 12.8 µM | SK-OV-3 4.52 µM | SNB-19 5.58 µM | SNB-75 6.01 µM | UACC-62 5.33 µM

O=C1c2ccccc2-c2c1c1ccccc1c(=O)n2Cc1ccccc1
inactive: CAKI-1 56.8 µM | HCT-116 > 100 µM | HL-60 > 100 µM | K562 > 10 µM | MDA-MB-435 > 100 µM | MOLT-4 > 100 µM | NCI/ADR-RES > 100 µM | OVCAR-4 14.5 µM | PC-3 > 100 µM | SF-295 93.1 µM | SF-539 57.1 µM | SK-MEL-2 > 100 µM | SK-OV-3 > 100 µM | SNB-75 56.4 µM | UACC-62 46.6 µM

CCOc1ccc2nc(NC(=O)C(=O)C(c3cnc4ccccc4n3)[N+](=O)[O-])sc2c1 (stereo not given)
inactive: CAKI-1 > 100 µM | HCC 2998 > 100 µM | HCT-116 > 100 µM | HL-60 56.2 µM | K562 98.2 µM | MOLT-4 53.1 µM | NCI/ADR-RES > 100 µM | OVCAR-4 > 100 µM | PC-3 > 100 µM | SF-295 > 100 µM | SF-539 > 100 µM | SK-MEL-2 > 100 µM | SK-OV-3 > 100 µM | SNB-19 69.2 µM | SNB-75 > 100 µM | UACC-62 > 100 µM

C=C1CN=C(Nc2ccc(F)cc2F)S1
inactive: CAKI-1 > 100 µM | HCC 2998 > 100 µM | HCT-116 > 100 µM | HL-60 31.5 µM | K562 30.5 µM | MOLT-4 31.7 µM | NCI/ADR-RES > 100 µM | OVCAR-4 > 100 µM | PC-3 > 100 µM | SF-295 > 100 µM | SF-539 > 100 µM | SK-MEL-2 > 100 µM | SK-OV-3 > 100 µM | SNB-19 > 100 µM | SNB-75 32.1 µM

From ChEMBL document CHEMBL1201862, “PubChem BioAssay data set” (2004)
